Assay results published in ChEMBL document CHEMBL1157518, “New trypanocidal hybrid compounds from the association of hydrazone moieties and benzofuroxan heterocycle” (Bioorg Med Chem, 2008).

Experiments:
Trypanosoma cruzi [1] = assay: Antitrypanosomal activity against epimastigotes of Trypanosoma cruzi Tulahuen 2 at 25 uM relative to control; assay type: functional; conditions: read-out: GI
Trypanosoma cruzi [2] = assay: Antitrypanosomal activity against epimastigotes of Trypanosoma cruzi Tulahuen 2; assay type: functional, organism-based
J774 = assay: Cytotoxicity against mouse J774 cells after 48 hrs by MTT assay; assay type: cell-based; conditions: J774, 48 h
[3] = Selectivity index, ratio of IC50 for mouse J774 cells to IC50 for epimastigotes of Trypanosoma cruzi Tulahuen 2; assay type: toxicity, cell-based; conditions: read-out: Ratio IC50
[4] = target: Trypanothione reductase (Trypanosoma cruzi) (UniProt P28593); assay: Inhibition of Trypanosoma cruzi recombinant trypanothione reductase at 100 uM by spectrophotometry
Trypanosoma cruzi [5] = assay: Antitrypanosomal activity against epimastigotes of Trypanosoma cruzi CL Brener; assay type: functional, organism-based
Cruzipain = Cruzipain (Trypanosoma cruzi, UniProt P25779); assay: Inhibition of Trypanosoma cruzi Tulahuen 2 epimastigote cruzipain by spectrophotometry
[6] = target: Trypanothione reductase (Trypanosoma cruzi) (UniProt P28593); assay: Inhibition of Trypanosoma cruzi recombinant trypanothione reductase at […] by spectrophotometry
[7] = target: Cruzipain (Trypanosoma cruzi) (UniProt P25779); assay: Inhibition of Trypanosoma cruzi Tulahuen 2 epimastigote cruzipain at 100 uM by spectrophotometry
[8] = target: Trypanothione reductase (Trypanosoma cruzi) (UniProt P28593); assay: Inhibition of Trypanosoma cruzi recombinant trypanothione reductase at 40 uM by spectrophotometry

Sequence of Cruzipain (Trypanosoma cruzi) (P25779 123-467 limits assumed): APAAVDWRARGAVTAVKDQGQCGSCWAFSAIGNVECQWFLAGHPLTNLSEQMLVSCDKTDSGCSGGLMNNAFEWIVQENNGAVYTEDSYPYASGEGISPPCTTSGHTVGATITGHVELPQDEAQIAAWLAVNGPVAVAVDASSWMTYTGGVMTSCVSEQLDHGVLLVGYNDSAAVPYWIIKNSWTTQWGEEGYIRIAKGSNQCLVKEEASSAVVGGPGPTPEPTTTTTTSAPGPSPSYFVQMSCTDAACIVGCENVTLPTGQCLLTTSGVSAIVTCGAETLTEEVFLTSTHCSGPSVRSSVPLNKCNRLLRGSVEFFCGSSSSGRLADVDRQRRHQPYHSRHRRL
Sequence of Cruzipain (P25779 whole entry): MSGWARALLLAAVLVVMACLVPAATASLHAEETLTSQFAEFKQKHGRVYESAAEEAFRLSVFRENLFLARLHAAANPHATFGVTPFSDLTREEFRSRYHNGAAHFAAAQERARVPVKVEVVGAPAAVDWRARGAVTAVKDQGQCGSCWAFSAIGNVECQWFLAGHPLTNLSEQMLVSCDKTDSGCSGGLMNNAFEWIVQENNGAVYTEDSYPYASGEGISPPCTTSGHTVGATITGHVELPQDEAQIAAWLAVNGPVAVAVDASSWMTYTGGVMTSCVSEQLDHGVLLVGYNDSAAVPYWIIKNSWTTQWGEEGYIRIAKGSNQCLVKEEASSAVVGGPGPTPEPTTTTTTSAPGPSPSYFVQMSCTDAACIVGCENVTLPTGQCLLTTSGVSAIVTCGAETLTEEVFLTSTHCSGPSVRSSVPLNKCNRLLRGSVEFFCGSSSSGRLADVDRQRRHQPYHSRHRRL
Sequence of Trypanothione reductase (Trypanosoma cruzi) (P28593 whole entry, looked up): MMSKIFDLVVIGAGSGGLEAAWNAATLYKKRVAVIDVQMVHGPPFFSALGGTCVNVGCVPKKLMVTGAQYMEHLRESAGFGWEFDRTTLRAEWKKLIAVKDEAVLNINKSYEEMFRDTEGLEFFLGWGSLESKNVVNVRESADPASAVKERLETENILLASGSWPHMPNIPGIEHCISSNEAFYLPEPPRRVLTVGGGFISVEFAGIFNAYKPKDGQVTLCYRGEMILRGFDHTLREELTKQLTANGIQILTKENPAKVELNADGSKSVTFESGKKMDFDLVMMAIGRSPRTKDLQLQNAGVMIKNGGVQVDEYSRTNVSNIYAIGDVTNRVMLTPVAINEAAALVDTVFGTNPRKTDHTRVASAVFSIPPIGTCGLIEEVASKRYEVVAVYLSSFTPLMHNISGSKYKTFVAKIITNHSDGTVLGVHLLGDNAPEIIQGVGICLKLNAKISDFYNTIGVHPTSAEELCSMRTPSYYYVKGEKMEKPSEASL

Compound	inhibition of growth at 25 µM (Trypanosoma cruzi [1])	IC50 (Trypanosoma cruzi [2])	IC50 (J774)	selectivity ratio [3]	inhibition [4]	IC50 (Trypanosoma cruzi [5])	IC50 (Cruzipain)	inhibition [6]	inhibition [7]	inhibition [8]
O=Cc1ccc(OCc2ccc3no[n+]([O-])c3c2)cc1	98%	8.7 µM	60 µM	6.9	19%					
NC(=S)N/N=C/c1ccc(OCc2ccc3no[n+]([O-])c3c2)cc1	70%		400 µM	26.7	0%	19.8 µM	43 µM	0%		
CC1CS(=O)(=O)CCN1/N=C/c1ccc([N+](=O)[O-])o1 (centres undefined) [NIFURTIMOX]	100%									
NC(=S)N/N=C/c1ccc2no[n+]([O-])c2c1	5%	> 25 µM			19%		> 100 µM		7%	9%
NC(=O)N/N=C/c1ccc(OCc2ccc3no[n+]([O-])c3c2)cc1	25%	> 25 µM			0%		> 100 µM	0%	23%	
[O-][n+]1onc2ccc(/C=N/N=C/c3ccccc3O)cc21	17%	> 25 µM					68 µM			
CC(=O)N1CCN(c2ccc(OCC3COC(Cn4ccnc4)(c4ccc(Cl)cc4Cl)O3)cc2)CC1 (centres undefined) [KETOCONAZOLE]	100%		< 50 µM	< 5						
[O-][n+]1onc2ccc(/C=N/N=C/c3cc(Br)ccc3O)cc21	48%	25 µM	84 µM	< 3.4			73 µM			
O=C(Cn1ccnc1[N+](=O)[O-])NCc1ccccc1 [BENZNIDAZOLE]	100%									
[O-][n+]1onc2ccc(/C=N/N=C/c3ccc(O)cc3)cc21	52%	25 µM					100 µM			
N=C(N/N=C/c1ccc(O)cc1)SCc1ccc2no[n+]([O-])c2c1	100%	6.8 µM	142 µM	20.9	19%					
C=CCNC(=S)N/N=C/c1ccc2no[n+]([O-])c2c1	35%	> 25 µM			9%		> 100 µM		36%	13%
N=C(N)N/N=C/c1ccc(OCc2ccc3no[n+]([O-])c3c2)cc1	40%	> 25 µM	< 50 µM	< 2	50%	38.2 µM	32 µM			30%
CN(C/C=C/C#CC(C)(C)C)Cc1cccc2ccccc12 [TERBINAFINE]	100%			5.1						
[O-][n+]1onc2ccc(/C=N/NC(=S)Nc3ccccc3)cc21	93%	8.9 µM	< 50 µM	< 5.6	0%	2.6 µM	78 µM	0%		
